From paper PMC8955265, “Systematic Discovery of FBXW7-Binding Phosphodegrons Highlights Mitogen-Activated Protein Kinases as Important Regulators of Intracellular Protein Levels” (International Journal of Molecular Sciences, 2022)
Where a SMILES comes first, the peptide text is derived from it. [ ]: non-standard residue; d: D form. pT = C[C@@H](OP(=O)(O)O)[C@H](N)C(=O)O; pS = N[C@@H](COP(=O)(O)O)C(=O)O

Assays:
Skp1-FBXW7 complex = target: T1, Skp1-FBXW7 complex (Homo sapiens, UniProt P63208+Q969H0); test: Fluorescence polarization competitive protein-peptide binding assay; details: for binding affinity to purified FBXW7 in vitro: FP based quantitative in vitro binding assay, result in words; for Kd: FP competition of unlabeled peptide against 50 nM CF-labeled CCNE peptide at ~60-80% complex formation, 20 mM Tris pH 8.0, 100 mM NaCl, 0.05% Brij35P, 2 mM TCEP, value with error
T1 construct: human FBXW7 (263-707) with an N-terminal hexa-histidine (His6) tag; His6 (N, cleaved yes); made in house; host or cells: E. coli Rosetta (DE3)
T1 sequence (Q969H0 263-707): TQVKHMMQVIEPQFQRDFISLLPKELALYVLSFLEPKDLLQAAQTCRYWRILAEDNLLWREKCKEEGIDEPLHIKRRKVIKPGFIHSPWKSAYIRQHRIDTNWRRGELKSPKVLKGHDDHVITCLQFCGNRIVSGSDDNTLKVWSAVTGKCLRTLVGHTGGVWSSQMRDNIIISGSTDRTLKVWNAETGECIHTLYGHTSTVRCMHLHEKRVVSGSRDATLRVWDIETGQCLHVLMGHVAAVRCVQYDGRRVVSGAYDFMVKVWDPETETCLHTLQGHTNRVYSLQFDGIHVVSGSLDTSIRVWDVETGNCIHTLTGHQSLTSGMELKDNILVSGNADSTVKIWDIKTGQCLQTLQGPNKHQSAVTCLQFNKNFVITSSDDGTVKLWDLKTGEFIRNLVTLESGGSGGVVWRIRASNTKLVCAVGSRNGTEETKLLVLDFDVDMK
T1 sequence (P63208 1-149 partner limits assumed): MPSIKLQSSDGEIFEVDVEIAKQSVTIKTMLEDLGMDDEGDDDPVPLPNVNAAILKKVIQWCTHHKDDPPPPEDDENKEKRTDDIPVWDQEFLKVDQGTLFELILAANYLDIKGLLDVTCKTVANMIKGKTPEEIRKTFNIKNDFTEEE
Description: Truncated Skp1 (1-149) and human FBXW7 (263-707) with an N-terminal hexa-histidine (His6) tag were cloned into a bicistronic plasmid (pMG950) and were co-expressed in E. coli Rosetta (DE3) strain. The Skp1-FBXW7 complex was purified using affinity, anion exchange, and gel filtration chromatography. The DNA expression plasmid was transformed into E. coli Rosetta (DE3) strain and grown in LB until OD600 = 0.5, protein expression was induced with 100 µM isopropyl-β-d-1-thigalatopyaranoside (IPTG) overnight at 18 °C. The cell pellet was lysed, and the recombinant protein was purified using Ni-NTA agarose beads. Before further purification the His6-tag was removed by using the TEV protease and then the protein complex was further purified using anion exchange chromatography twice, first with a Resource Q and then with a Mono Q column (pH = 8). Finally, the complex was subjected to size-exclusion chromatography in 20 mM Tris, pH = 8, 150 mM NaCl, and 1 mM DTT using a Superdex200 10/300 column (GE Healthcare, Chicago, IL, USA). The eluted fractions were pooled together and were supplemented with 10% glycerol and 2 mM TCEP before concentration and storage.
Fluoresce polarization (FP) based protein–peptide binding affinity measurements were carried out using 50 nM carboxyfluorescein (CF) labeled CCNE peptide (CF-PSGLLpTPPQpSGKKQ) and data were fit to a direct or a competitive binding equation using OriginPro 2018 as described earlier. For the direct measurements the concentration of Skp1-FBXW7 complex was increased in a titration experiment and then the binding affinity (Ki) of the unlabeled peptide was determined by titrating the Skp1-FBXW7: labelled peptide complex sample, at a concentration corresponding to ~60–80% complex formation, with increasing amounts of unlabeled peptide. All the FP measurements were performed in 20 mM Tris (pH 8.0), 100 mM NaCl, 0.05% Brij35P, and 2 mM TCEP using a Cytation^TM 3 (BioTek Instruments) plate reader (384-well plates in 20 µL binding reaction volume). Peptides were chemically synthesized and were ordered from GenScript.

FBXW7 = test: Ratiometric EGFP/DsRed protein degradation assay with degron probes; format: cell-based, human; details: putative degron motif in EGFP-fused probe with AAKG2 MAPK docking motif; HEK293T, 48 h after transfection, EGFP/DsRed ratio with and without FBXW7 plasmid; search cycles 1-4
From the text: In order to be able to test putative phosphodegron motifs, a ratiometric protein level monitoring method was adapted to monitor MAPK controlled FBXW7 mediated protein degradation. Briefly, intact DsRed and an EGFP-chimera were expressed in HEK293T cells in equal amounts from an expression plasmid, giving an EGFP/DsRed fluorescence ratio close to one under non-degrading conditions. EGFP was fused to a probe comprised of a putative degron sequence and a known MAPK binding docking motif. EGFP signal is expected to diminish faster than DsRed in cells with more FBXW7 if the probe responded to degradation.
We started out from an intentionally general consensus motif of FBXW7 degrons, inspired by the liberal [TS]P..[TS]P pattern defined for yeast Cdc4 substrates, and scanned the human disordered part of the proteome using SliMSearch4 (the disorder score cut-off was 0.4 and flank length was 5). In all, 22 motifs from this list were subjectively chosen and tested in the ratiometric degradation assay giving only 5 positives (see Supplementary Table S1). Based on the results of this first round, by taking information both from the identified positives and negatives, the consensus motif definition was narrowed to requiring a proline at P + 2, but motifs were allowed to have a phospho-mimicking residue (D or E) at P + 4 because it had been formerly reported that this second phosphorylatable residue may be replaced by aspartate or glutamate. […] In the third round, hydrophobic amino acids were more strictly required at positions −1/−2 and P − 1/2/3 positions were further narrowed and P + 4 position was relaxed based on the identified negatives, which gave a higher hit rate (4 out of 6). This third round gave functional motifs at a good rate, but the used motif definition was very restrictive compared to other known motifs. Finally, in the fourth round, we gave up using an optimal consensus and established the positional relaxation model. […] Hits on this final, most predictive list are presented in Supplementary Table S2. All entries were filtered for motif locations by UniProt annotations, discarding all enzyme-inaccessible (e.g., extracellular) instances. Motifs that had any overlapping PFAM domain indicated were manually assessed using the AlphaFold EBI website. Out of these, only motifs that were highly accessible and located outside of confidently predicted folded domains were kept. We also added kinase consensus compatibility to every motif and the number of experiments where phosphorylation could be detected from PhosphoSitePlus.
The chimera degron module was ordered from IDT as gene Block (gBlock). It consisted of a coiled coil dimerization motif (GCN4: EELLSKNYHLENEVARLKK) to increase sensitivity by allowing multivalent binding, a MAPK binding docking motif (AAKG2: KKNASQKRRSLRVHIPDL), and the CycECO degron motif. The motifs were separated by Gly-Ser-Asn linkers and the gBlock was designed so that the motifs could be easily changed by using unique sets of restriction endonucleases. The gBlock was sub-cloned into the Gateway pENTR4 entry plasmid (Thermo Fisher, Waltham, MA, USA) using restriction enzymes (SalI and NotI). The pENTR4-chimera and the destination plasmid (MSCV-CMV-DsRed-IRES-EGFP-DEST from Addgene; 41941), [28]) were subjected to gateway cloning using LR clonase II enzyme (Invitrogen) to obtain the first DsRed-EGFP-chimera DNA construct containing the cycECO degron. Oligonucleotides corresponding to different degron sequences and docking motifs were ligated into the DsRed-EGFP-chimera DNA construct. The list of all the oligonucleotides used for cloning is provided in Supplementary Table S3. pcDNA3-FLAG-FBXW7α was a kind gift from Michael Pagano (New York University). The FBXW7 arginine mutant (Arg mutant: R465C; R479Q; R505L) was created using two-step PCR and cloned into the pcDNA3-FLAG plasmid. […]

| Compound | binding affinity to purified FBXW7 in vitro (Skp1-FBXW7 complex) | Kd (Skp1-FBXW7 complex) [nM] | Outcome (FBXW7) |
| --- | --- | --- | --- |
| CC(C)C[C@H](NC(=O)[C@@H](NC(=O)[C@H](CO)NC(=O)[C@H](CC(N)=O)NC(=O)[C@@H](N)CO)C(C)C)C(=O)N[C@@H](CC(N)=O)C(=O)N[C@H](C(=O)N1CCC[C@H]1C(=O)N1CCC[C@H]1C(=O)N[C@H](C(=O)N[C@H](C(=O)N1CCC[C@H]1C(=O)N[C@@H](CCC(=O)O)C(=O)N[C@@H](CO)C(=O)N1CCC[C@H]1C(=O)O)[C@@H](C)OP(=O)(O)O)[C@@H](C)O)[C@@H](C)OP(=O)(O)O [ARID4B] (H-SNSVLN[pT]PPT[pT]PESP-OH) | low nanomolar | 17.7 ± 0.6 | – |
| CC(C)C[C@H](NC(=O)[C@@H]1CCCN1C(=O)[C@H](CCCCN)NC(=O)[C@H](Cc1ccccc1)NC(=O)CNC(=O)[C@@H](N)CO)C(=O)N[C@H](C(=O)N1CCC[C@H]1C(=O)N1CCC[C@H]1C(=O)N[C@H](C(=O)N[C@H](C(=O)N1CCC[C@H]1C(=O)N[C@@H](CC(C)C)C(=O)N[C@@H](CO)C(=O)N1CCC[C@H]1C(=O)O)[C@@H](C)OP(=O)(O)O)[C@@H](C)O)[C@@H](C)OP(=O)(O)O [ETV5] (H-SGFKPL[pT]PPT[pT]PLSP-OH) | low nanomolar | 16.1 ± 2.1 | – |
| CC[C@H](C)[C@H](NC(=O)[C@@H]1CCCN1C(=O)[C@@H]1CCCN1C(=O)[C@@H](NC(=O)[C@@H](NC(=O)[C@@H]1CCCN1C(=O)[C@@H]1CCCN1C(=O)[C@@H](NC(=O)[C@H](CC(C)C)NC(=O)[C@H](CO)NC(=O)CNC(=O)[C@H](CO)NC(=O)[C@H](CO)NC(=O)[C@@H](N)Cc1c[nH]cn1)[C@@H](C)OP(=O)(O)O)C(C)C)[C@@H](C)OP(=O)(O)O)C(=O)N[C@H](C(=O)O)[C@@H](C)O [JAZF1] (H-HSSGSL[pT]PPV[pT]PPIT-OH) | low nanomolar | 29.7 ± 3.2 | – |
| CSCC[C@H](NC(=O)[C@@H]1CCCN1C(=O)[C@@H](NC(=O)[C@H](CCC(=O)O)NC(=O)[C@@H]1CCCN1C(=O)[C@@H]1CCCN1C(=O)[C@@H](NC(=O)[C@H](Cc1ccc(O)cc1)NC(=O)[C@H](CC(C)C)NC(=O)[C@H](CC(N)=O)NC(=O)[C@H](CC(C)C)NC(=O)[C@H](CCCCN)NC(=O)[C@@H](N)Cc1ccccc1)[C@@H](C)OP(=O)(O)O)[C@@H](C)OP(=O)(O)O)C(=O)N[C@@H](CCC(=O)O)C(=O)N1CCC[C@H]1C(=O)O [KAT6B] (H-FKLNLY[pT]PPE[pT]PMEP-OH) | low nanomolar | 2.8 ± 0.2 | – |
| CSCC[C@H](NC(=O)CNC(=O)[C@H](Cc1c[nH]cn1)NC(=O)[C@@H](N)[C@@H](C)O)C(=O)N[C@@H](CCSC)C(=O)N[C@@H](CC(C)C)C(=O)N[C@H](C(=O)N1CCC[C@H]1C(=O)N1CCC[C@H]1C(=O)N[C@@H](CO)C(=O)N[C@@H](COP(=O)(O)O)C(=O)N1CCC[C@H]1C(=O)N[C@@H](CC(C)C)C(=O)N[C@@H](CCC(=O)O)C(=O)N[C@@H](CC(C)C)C(=O)O)[C@@H](C)OP(=O)(O)O [KLF4] (H-THGMML[pT]PPS[pS]PLEL-OH) | low nanomolar | 11 ± 1 | – |
| TANLPPSPPPSPASEQT [MAP2, putative FBXW7 degron motif tested as EGFP-fused degradation probe] | – | – | Positive (tested positive, where +FBXW7/control protein level ratio was lower than 1) |
| TCPNSPSTPPSTPSPRV [SOS2, putative FBXW7 degron motif tested as EGFP-fused degradation probe] | – | – | Negative |
| TEPRSSPSPPPSPTEPE [CUX2, putative FBXW7 degron motif tested as EGFP-fused degradation probe] | – | – | Negative |
| TTVTPPGTPPMR [KSR2-b, putative FBXW7 degron motif tested as EGFP-fused degradation probe] | – | – | Negative |
| VAVSPTPPVSPEVRST [CEP164, putative FBXW7 degron motif tested as EGFP-fused degradation probe] | – | – | Negative |
| VKRTLPSPPPEEAHLP [BSN, putative FBXW7 degron motif tested as EGFP-fused degradation probe] | – | – | Negative |
